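1) Cells in 96-well plates. 2) Compound, 48 h, 5 concentrations. 3) Linear interpolation between surrounding doses. 4) Unreached endpoint = highest concentration. The concentration for 50% growth inhibition is given as GI50. At the TGI there is no net growth.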
What was measured:
Assay in all cases: inhibition of tumour cell growth, NCI panel, 48 h
[1] = system: HL-60(TB) leukemia
[2] = system: ACHN renal
[3] = system: MDA-MB-435
[4] = system: BT-549 breast
[5] = system: SK-MEL-5 melanoma
[6] = system: NCI/ADR-RES ovarian
[7] = system: T-47D breast
[8] = system: HCT-15 colon
[9] = system: CAKI-1 renal
[10] = system: RPMI-8226 leukemia
[11] = system: HS 578T breast
[12] = system: UO-31 renal
[13] = system: HCC-2998 colon
[14] = system: OVCAR-5 ovarian
[15] = system: SW-620 colon
[16] = system: SNB-75 CNS
[17] = system: HT29 colon
[18] = system: OVCAR-4 ovarian
[19] = system: SF-268 CNS
[20] = system: SR leukemia
[21] = system: TK-10 renal
[22] = system: K-562 leukemia
[23] = system: COLO 205 colon
[24] = system: UACC-62 melanoma
[25] = system: NCI-H460 lung
[26] = system: DU-145 prostate
[27] = system: SK-MEL-28 melanoma
[28] = system: MOLT-4 leukemia
[29] = system: SN12C renal
[30] = system: EKVX NSCLC
[31] = system: HOP-92 NSCLC
[32] = system: A498 renal
[33] = system: CCRF-CEM leukemia
[34] = system: SF-295 CNS
[35] = system: MALME-3M melanoma
[36] = system: PC-3 prostate
[37] = system: A549 NSCLC
[38] = system: HCT-116 colon
[39] = system: RXF 393 renal
[40] = system: IGROV1 ovarian
[41] = system: SK-MEL-2 melanoma
[42] = system: NCI-H226 lung
[43] = system: SK-OV-3 ovarian
[44] = system: UACC-257 melanoma
[45] = system: SF-539 CNS
[46] = system: MCF7 breast
[47] = system: OVCAR-8 ovarian
[48] = system: U251 CNS
[49] = system: HOP-62 NSCLC
[50] = system: LOX IMVI melanoma
[51] = system: M14 melanoma
[52] = system: NCI-H23 lung
[53] = system: 786-0 renal
[54] = system: KM12 colon
[55] = system: MDA-MB-231 breast
[56] = system: SNB-19 CNS
[57] = system: NCI-H522 lung

`[Cl][Ru].c1ccc(-c2cc(-c3ccccn3)nc(-c3ccccn3)c2)cc1.c1ccc(-c2ccnc3c2ccc2c(-c4ccccc4)ccnc23)cc1` showed a GI50 [1] of 0.252 µM, a TGI [1] of 0.696 µM and a GI50 [2] of 3.23 µM. The TGI [2] was 25.7 µM, the GI50 [3] was 0.322 µM and the TGI [3] was 1.01 µM. For the same compound, the GI50 [4] was 0.224 µM, the TGI [4] was 0.869 µM and the GI50 [5] was 0.577 µM. The TGI [5] was 1.84 µM, the GI50 [6] was 31.1 µM and the TGI [6] was > 100 µM. For the same compound, the GI50 [7] was 0.27 µM, the TGI [7] was 1.07 µM and the GI50 [8] was 2.08 µM. For the same compound, the TGI [8] was 4.73 µM, the GI50 [9] was 3.15 µM and the TGI [9] was 26.6 µM. It also gave a GI50 [10] of 0.232 µM, a TGI [10] of 0.727 µM and a GI50 [11] of 0.275 µM. For the same compound, the TGI [11] was 0.919 µM, the GI50 [12] was 2.62 µM and the TGI [12] was > 45.8 µM. It also gave a GI50 [13] of 0.356 µM, a TGI [13] of 1.45 µM and a GI50 [14] of 0.396 µM. It also gave a TGI [14] of 1.71 µM, a GI50 [15] of 0.451 µM and a TGI [15] of 1.67 µM. The GI50 [16] was 0.179 µM, the TGI [16] was 0.829 µM and the GI50 [17] was 0.333 µM. For the same compound, the TGI [17] was 1.31 µM, the GI50 [18] was 0.424 µM and the TGI [18] was 2.5 µM. For the same compound, the GI50 [19] was 0.489 µM, the TGI [20] was 1.09 µM and the GI50 [21] was 1.6 µM. It also gave a TGI [21] of 4.15 µM, a GI50 [22] of 0.301 µM and a TGI [22] of 4.66 µM. It also gave a GI50 [23] of 0.182 µM, a TGI [23] of 0.335 µM and a GI50 [24] of 0.292 µM. The TGI [24] was 1.17 µM, the GI50 [25] was 0.351 µM and the TGI [25] was 1.12 µM. The GI50 [26] was 0.529 µM, the GI50 [27] was 0.418 µM and the TGI [27] was 1.58 µM. It also gave a GI50 [28] of 0.332 µM, a TGI [28] of 1.62 µM and a GI50 [29] of 0.266 µM. For the same compound, the TGI [29] was 0.915 µM, the GI50 [30] was 0.352 µM and the TGI [30] was 2.36 µM. The GI50 [31] was 0.139 µM, the TGI [31] was 0.543 µM and the GI50 [32] was 1.93 µM. The TGI [32] was 4.56 µM and the GI50 [33] was 0.415 µM.
`N#Cc1c(NC(=O)c2cccc(C(F)(F)F)c2F)sc2c1CCC(=O)C2` was tested, and the GI50 [1] was 0.235 µM, the TGI [1] was 10.9 µM and the GI50 [34] was 0.515 µM. The TGI [34] was 2.42 µM, the GI50 [2] was 0.296 µM and the TGI [2] was 1.01 µM. The GI50 [3] was 0.336 µM, the TGI [3] was 1.4 µM and the GI50 [35] was 0.266 µM. For the same compound, the TGI [35] was 0.694 µM, the GI50 [36] was 0.114 µM and the TGI [36] was 1.48 µM. The GI50 [37] was 1.88 µM, the TGI [37] was > 100 µM and the GI50 [4] was 0.308 µM. The TGI [4] was 1.43 µM, the GI50 [38] was 0.124 µM and the TGI [38] was 1.26 µM. The GI50 [39] was 0.221 µM, the TGI [39] was 0.714 µM and the GI50 [40] was 0.49 µM. It also gave a TGI [40] of 2.2 µM, a GI50 [41] of 2.15 µM and a TGI [41] of 5.33 µM. For the same compound, the GI50 [5] was 0.372 µM, the TGI [5] was 1.32 µM and the GI50 [42] was 0.487 µM. For the same compound, the TGI [42] was 2.57 µM, the GI50 [43] was 1.96 µM and the TGI [43] was 6.37 µM. The GI50 [6] was 0.345 µM, the TGI [6] was 1.82 µM and the GI50 [7] was 0.151 µM. The TGI [7] was 1.65 µM, the GI50 [44] was 0.624 µM and the TGI [44] was 3.18 µM. It also gave a GI50 [8] of 0.246 µM, a TGI [8] of 1.14 µM and a GI50 [45] of 0.244 µM. For the same compound, the TGI [45] was 0.8 µM, the GI50 [46] was 0.276 µM and the TGI [46] was > 23 µM. For the same compound, the GI50 [47] was 0.356 µM, the TGI [47] was > 100 µM and the GI50 [9] was 0.221 µM. It also gave a TGI [9] of 0.866 µM, a GI50 [10] of 0.0664 µM and a GI50 [11] of 0.357 µM. It also gave a TGI [11] of 2.32 µM, a GI50 [12] of 0.22 µM and a TGI [12] of 0.73 µM. It also gave a GI50 [48] of 0.356 µM, a TGI [48] of 2.24 µM and a GI50 [13] of 0.588 µM. For the same compound, the TGI [13] was 2.09 µM, the GI50 [14] was 0.392 µM and the TGI [14] was 1.78 µM. It also gave a GI50 [49] of 0.782 µM, a GI50 [50] of 0.311 µM and a TGI [50] of 1.18 µM. The GI50 [51] was 0.378 µM, the TGI [51] was 2.1 µM and the GI50 [15] was 0.225 µM. The TGI [15] was 1.46 µM, the GI50 [52] was 0.337 µM and the TGI [52] was 2.07 µM. It also gave a GI50 [16] of 0.459 µM, a TGI [16] of 3.55 µM and a GI50 [17] of 0.226 µM. For the same compound, the TGI [17] was 1.31 µM, the GI50 [18] was 0.393 µM and the TGI [18] was 1.73 µM. For the same compound, the GI50 [19] was 0.408 µM, the TGI [19] was > 100 µM and the GI50 [20] was 0.0761 µM. For the same compound, the TGI [20] was > 100 µM, the GI50 [21] was 0.33 µM and the GI50 [22] was 0.112 µM. The TGI [22] was > 100 µM, the GI50 [23] was 0.21 µM and the TGI [23] was 0.437 µM. The GI50 [53] was 0.444 µM, the TGI [53] was > 47.5 µM and the GI50 [24] was 0.317 µM. The TGI [24] was 1.33 µM, the GI50 [54] was 0.464 µM and the TGI [54] was 1.98 µM. The GI50 [55] was 0.356 µM, the TGI [55] was 1.35 µM and the GI50 [25] was 0.549 µM. The TGI [25] was > 38.9 µM, the GI50 [26] was 1.27 µM and the TGI [26] was > 100 µM. For the same compound, the GI50 [27] was 0.475 µM, the TGI [27] was 1.79 µM and the GI50 [28] was 0.308 µM. For the same compound, the TGI [28] was > 37.7 µM, the GI50 [56] was 0.41 µM and the TGI [56] was 15.6 µM. The GI50 [29] was 0.326 µM, the TGI [29] was 2.22 µM and the GI50 [30] was 0.563 µM. The TGI [30] was 4.4 µM, the GI50 [57] was 0.194 µM and the TGI [57] was 0.719 µM. The GI50 [31] was 0.243 µM, the TGI [31] was 0.679 µM and the GI50 [32] was 2.19 µM. The TGI [32] was 5.93 µM, the GI50 [33] was 0.19 µM and the TGI [33] was > 100 µM.
`CCOC(=O)c1c(NC(=O)c2cccc(C(F)(F)F)c2)sc2c(CN3CCN(C)CC3)c(O)ccc12` gave a GI50 [34] of 1.7 µM, a TGI [34] of 3.25 µM and a GI50 [2] of 1.82 µM. For the same compound, the TGI [2] was 3.31 µM, the GI50 [3] was 1.69 µM and the TGI [3] was 3.1 µM. The GI50 [35] was 1.65 µM, the TGI [35] was 3.15 µM and the GI50 [38] was 1 µM. The TGI [38] was 2.43 µM, the GI50 [40] was 1.7 µM and the TGI [40] was 3.27 µM. The GI50 [5] was 1.79 µM, the TGI [5] was 3.4 µM and the GI50 [8] was 1.61 µM. For the same compound, the TGI [8] was 3.13 µM, the GI50 [45] was 1.62 µM and the TGI [45] was 3.06 µM. For the same compound, the GI50 [46] was 1.51 µM, the TGI [46] was 3.03 µM and the GI50 [11] was 1.89 µM. The TGI [11] was 4.51 µM, the GI50 [12] was 1.52 µM and the TGI [12] was 3 µM. It also gave a GI50 [13] of 1.65 µM, a TGI [13] of 3.37 µM and a GI50 [14] of 1.5 µM. For the same compound, the TGI [14] was 2.85 µM, the GI50 [50] was 1.76 µM and the TGI [50] was 3.31 µM. It also gave a GI50 [51] of 1.88 µM, a TGI [51] of 3.53 µM and a GI50 [52] of 1.76 µM. For the same compound, the TGI [52] was 3.28 µM, the GI50 [24] was 1.76 µM and the TGI [24] was 3.27 µM. It also gave a GI50 [54] of 1.86 µM, a TGI [54] of 3.4 µM and a GI50 [55] of 1.65 µM. For the same compound, the TGI [55] was 3.11 µM, the GI50 [27] was 1.72 µM and the TGI [27] was 3.15 µM. It also gave a GI50 [56] of 1.72 µM, a TGI [56] of 3.31 µM and a GI50 [29] of 1.67 µM. The TGI [29] was 3.16 µM, the GI50 [30] was 1.69 µM and the TGI [30] was 3.31 µM. The GI50 [33] was 1.51 µM and the TGI [33] was 4.22 µM.
